Results: patent US8639486B2, “Method for identifying inhibitors of Staphylococcus aureus” (Indian Institute of Science, priority 2010, dated 2014)
Residues, ends and D or L forms follow the SMILES beside them.

Target: S. aureus N-Succinyl-L,L-DAP Desuccinylase (DapE), SEQ ID NO: 2 (Staphylococcus aureus, UniProt Q5HF23)
Experiment: qualitative dipeptidase activity (TLC assay)
Assay type: biochemical, Staphylococcus aureus COL
Design: key: +: Mild hydrolytic activity; ++: Moderate hydrolytic activity; +++: High hydrolytic activity
Settings: 5.0 mg/mL dipeptide, 2 μg DapE, 50 mM Tris-HCl pH 7.5, 37° C., 30 min

Sequence of S. aureus N-Succinyl-L,L-DAP Desuccinylase (DapE), SEQ ID NO: 2 (Q5HF23 whole entry): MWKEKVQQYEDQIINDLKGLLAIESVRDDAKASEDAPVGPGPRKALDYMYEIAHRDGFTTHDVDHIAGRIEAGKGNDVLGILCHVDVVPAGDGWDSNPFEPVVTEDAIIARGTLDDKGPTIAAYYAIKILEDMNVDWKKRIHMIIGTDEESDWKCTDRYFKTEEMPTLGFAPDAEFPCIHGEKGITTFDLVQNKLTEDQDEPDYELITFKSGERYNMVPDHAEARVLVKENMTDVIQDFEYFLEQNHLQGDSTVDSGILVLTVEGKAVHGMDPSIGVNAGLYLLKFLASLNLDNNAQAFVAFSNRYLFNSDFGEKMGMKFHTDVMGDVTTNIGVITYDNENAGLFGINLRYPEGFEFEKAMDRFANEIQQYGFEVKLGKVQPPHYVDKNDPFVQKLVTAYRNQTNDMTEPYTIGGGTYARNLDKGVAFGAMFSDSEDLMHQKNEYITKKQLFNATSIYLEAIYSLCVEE

Molecule	Activity (qualitative dipeptidase / hydrolytic activity)
C[C@H](N)C(=O)N[C@@H](CO)C(=O)O [Ala-Ser] (H-Ala-Ser-OH)	+
C[C@H](NC(=O)[C@@H](N)CCCN=C(N)N)C(=O)O [Arg-Ala] (H-Arg-Ala-OH)	+++
CC[C@H](C)[C@H](NC(=O)[C@@H](N)CCCN=C(N)N)C(=O)O [Arg-Ile] (H-Arg-Ile-OH)	+++
CC(C)C[C@H](NC(=O)[C@@H](N)CCCN=C(N)N)C(=O)O [Arg-Leu] (H-Arg-Leu-OH)	+++
CC(C)[C@H](NC(=O)[C@@H](N)CCCN=C(N)N)C(=O)O [Arg-Val] (H-Arg-Val-OH)	+++
NCCCC[C@H](NC(=O)[C@@H](N)CC(=O)O)C(=O)O [Asp-Lys] (H-Asp-Lys-OH)	+
NCCCC[C@H](NC(=O)CN)C(=O)O [Gly-Lys] (H-Gly-Lys-OH)	+
NCC(=O)N[C@@H](CO)C(=O)O [Gly-Ser] (H-Gly-Ser-OH)	+
CC(C)C[C@H](NC(=O)[C@@H](N)Cc1cnc[nH]1)C(=O)O [His-Leu] (H-His-Leu-OH)	+
CC(C)C[C@H](NC(=O)[C@@H](N)CCCCN)C(=O)O [Lys-Leu] (H-Lys-Leu-OH)	++
NCCCC[C@H](N)C(=O)N[C@@H](Cc1ccccc1)C(=O)O [Lys-Phe]	++
CC(C)[C@H](NC(=O)[C@@H](N)Cc1ccccc1)C(=O)O [Phe-Val] (H-Phe-Val-OH)	+++
N[C@@H](CO)C(=O)N[C@@H](Cc1cnc[nH]1)C(=O)O [Ser-His] (H-Ser-His-OH)	++

Test system: botanical DapA (N. sylvestris)
Experiment: not given
Settings: highly sensitive, read-out: IC50 of feedback inhibition by L-lysine; cited from earlier work

Molecule	IC50 [mM]
NCCCC[C@H](N)C(=O)O [L-lysine]	0.015 to 0.02

Test system: CC(C)[C@H](NC(=O)[C@@H](N)Cc1ccccc1)C(=O)O
Experiment: purified protein, by the assay type
Settings: other: holo-DapE + Mn^2+ + TCEP, Phe-Val, pH 7.5, 37° C.

Molecule	Km [µM]
S. aureus N-Succinyl-L,L-DAP Desuccinylase (DapE), holo form, SEQ ID NO: 2 (Staphylococcus aureus subsp. aureus COL)	1100 ± 100

Same assay, conditions: other: holo-DapE + Mn^2+, Phe-Val, pH 7.5, 37° C.

Molecule	Km [µM]
S. aureus N-Succinyl-L,L-DAP Desuccinylase (DapE), holo form, SEQ ID NO: 2 (Staphylococcus aureus subsp. aureus COL)	1150 ± 120

Same assay, conditions: other: holo-DapE, Phe-Val, pH 7.5, 37° C.

Molecule	Km [µM]
S. aureus N-Succinyl-L,L-DAP Desuccinylase (DapE), holo form, SEQ ID NO: 2 (Staphylococcus aureus subsp. aureus COL)	670 ± 100

Target: DapA from gram negative bacteria (E. coli) (Escherichia coli, UniProt P0A6L2)
Sequence (P0A6L2 whole entry): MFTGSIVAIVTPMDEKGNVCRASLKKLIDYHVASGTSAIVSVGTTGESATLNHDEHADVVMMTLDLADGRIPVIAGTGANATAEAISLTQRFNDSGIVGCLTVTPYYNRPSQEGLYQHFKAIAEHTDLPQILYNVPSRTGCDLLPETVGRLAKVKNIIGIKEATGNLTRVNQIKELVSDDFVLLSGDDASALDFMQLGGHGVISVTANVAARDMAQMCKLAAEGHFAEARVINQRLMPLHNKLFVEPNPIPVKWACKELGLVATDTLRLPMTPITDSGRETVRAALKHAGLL
Experiment: not given
Settings: less sensitive, read-out: IC50 of feedback inhibition by L-lysine; cited from earlier work

Molecule	IC50 [mM]
NCCCC[C@H](N)C(=O)O [L-lysine]	100
